From US20120157401A1, “METHODS FOR TREATING NEUROFIBROMATOSIS” (PTC Therapeutics, Inc., priority 2009, published 2012)

What follows are compounds tested on hypoxia-inducible endogenous VEGF expression (assay: Hypoxia-inducible endogenous VEGF expression ELISA in HeLa cells, dose-response EC50 (Table 3)). Details: HeLa cells, hypoxic conditions (1% O2), 24-48 hours, VEGF in conditioned media; read-out: ELISA EC50.
Format: cell-based, human
How it was run: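 HeLa cells kept 24-48 h under hypoxia (1% O2, 5% CO2, nitrogen balance) with or without compound, e.g. seven concentrations; secreted VEGF in conditioned medium quantified by ELISA against a standard curve. Parallel Cell Titer Glo viability under identical conditions excludes cytotoxicity.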

Structure (SMILES)	EC50 [µM]
O=C(Oc1ccc(F)cc1)N1CCc2c([nH]c3ccc(Cl)cc23)C1c1ccc(OCC(O)Cn2ccnn2)cc1 (stereo not drawn) [Compound 1066]	< 0.008
O=C(Oc1ccc(Cl)cc1)N1CCc2c([nH]c3ccc(Cl)cc23)C1c1ccc(OCCCCn2ccnc2)cc1 (stereo not drawn) [Compound 1001]	0.008 to 0.04

Same assay, conditions: Homo sapiens, HeLa, read-out: ELISA EC50 μM

Structure (SMILES)	EC50 [µM]
CC(C)NCCCCCCOc1ccc(C2c3[nH]c4ccc(Cl)cc4c3CCN2C(=O)Oc2ccc(Cl)cc2)cc1 (stereo not drawn) [Compound 784]	< 0.008
CN1CCN(CCCCOc2ccc(C3c4[nH]c5ccc(Cl)cc5c4CCN3C(=O)Oc3ccc(Cl)cc3)cc2)CC1 (stereo not drawn) [Compound 704]	0.04 to 0.2
O=C(Oc1ccc(Cl)cc1)N1CCc2c([nH]c3ccc(Cl)cc23)C1c1ccc(OCCCCN2CCCC2)cc1 (stereo not drawn) [Compound 698]	0.008 to 0.04
COCCN(CCOC)CC(O)COc1ccc(C2c3[nH]c4ccc(Cl)cc4c3CCN2C(=O)Oc2ccc(Cl)cc2)cc1 (stereo not drawn) [Compound 918]	< 0.008
O=C(Oc1ccc(Cl)cc1)N1CCc2c([nH]c3ccc(Cl)cc23)C1c1ccc(OCCCCN2CCCCC2)cc1 (stereo not drawn) [Compound 703]	0.008 to 0.04
O=C(Oc1ccc(F)cc1)N1CCc2c([nH]c3ccc(Cl)cc23)C1c1ccc(OCCCCCCN2CCCC2)cc1 (stereo not drawn) [Compound 773]	< 0.008
O=C(Oc1ccc(F)cc1)N1CCc2c([nH]c3ccc(Cl)cc23)C1c1ccc(OCCCCN2CCCCC2)cc1 (stereo not drawn) [Compound 739]	< 0.008
NCC(O)COc1ccc(C2c3[nH]c4ccc(Cl)cc4c3CCN2C(=O)Oc2ccc(Cl)cc2)cc1 (stereo not drawn) [Compound 846]	0.04 to 0.2
O=C(Oc1ccc(F)cc1)N1CCc2c([nH]c3ccc(Cl)cc23)C1c1ccc(OCCCCCCN2CCCCC2)cc1 (stereo not drawn) [Compound 777]	< 0.008
CC(=O)N1CCN(CCCOc2cccc(C3c4[nH]c5ccc(Cl)cc5c4CCN3C(=O)Oc3ccc(F)cc3)c2)CC1 (stereo not drawn) [Compound 1364]	0.04 to 0.2
CN(C)CCN(C)CCCOc1ccc([C@H]2c3[nH]c4ccc(Cl)cc4c3CCN2C(=O)Oc2ccc(Cl)cc2)cc1 [Compound 1611]	< 0.008
COC(=O)[C@H]1CCCN1CCCOc1ccc(C2c3[nH]c4ccc(Cl)cc4c3CCN2C(=O)Oc2ccc(Cl)cc2)cc1 (stereo partly drawn) [Compound 1362]	< 0.008
CN1CCN(CC(O)COc2ccc(C3c4[nH]c5ccc(Cl)cc5c4CCN3C(=O)Oc3ccc(Cl)cc3)cc2)CC1 (stereo not drawn) [Compound 970]	0.008 to 0.04
COc1ccc(OC(=O)N2CCc3c([nH]c4ccc(Cl)cc34)C2c2ccc(OCC3CCCN(C)C3)cc2)cc1 (stereo not drawn) [Compound 981]	0.04 to 0.2
Cc1ccc(OC(=O)N2CCc3c([nH]c4ccc(Cl)cc34)[C@@H]2c2ccc(OCCC(O)CN3CCOCC3)cc2)cc1 (stereo partly drawn) [Compound 1302]	0.04 to 0.2
COc1ccc(OC(=O)N2CCc3c([nH]c4ccc(Cl)cc34)C2c2ccc(OCCC3CCCN3C)cc2)cc1 (stereo not drawn) [Compound 1005]	0.2 to 1
COCCCNCCCCOc1ccc(C2c3[nH]c4ccc(Cl)cc4c3CCN2C(=O)Oc2ccc(Cl)cc2)cc1 (stereo not drawn) [Compound 701]	0.008 to 0.04
O=C(Oc1ccc(Cl)cc1)N1CCc2c([nH]c3ccc(Cl)cc23)C1c1ccc(OCC(O)CN2CCOCC2)cc1 (stereo not drawn) [Compound 904]	< 0.008
O=C(Oc1ccc(Cl)cc1)N1CCc2c([nH]c3ccc(Cl)cc23)C1c1ccc(OCCCCNCCO)cc1 (stereo not drawn) [Compound 699]	0.008 to 0.04
CCN1CCN(C(=O)COc2ccc(C3c4[nH]c5ccc(Cl)cc5c4CCN3C(=O)Oc3ccc(OC)cc3)cc2)CC1 (stereo not drawn) [Compound 1028]	0.04 to 0.2
O=C(Oc1ccc(Cl)cc1)N1CCc2c([nH]c3ccc(Cl)cc23)C1c1ccc(OCCCCCCN2CCCC2)cc1 (stereo not drawn) [Compound 783]	< 0.008
O=C(Oc1ccccc1)N1CCc2c([nH]c3ccc(Cl)cc23)C1c1ccc(OCCCN2CCOCC2)cc1 (stereo not drawn) [Compound 1075]	0.008 to 0.04

Same assay, conditions: Homo sapiens; HeLa cells, hypoxic conditions (1% O2), 24-48 hours, VEGF in conditioned media; read-out: ELISA EC50

Structure (SMILES)	EC50 [µM]
COc1cc(C2c3[nH]c4ccc(Cl)cc4c3CCN2C(=O)Oc2ccccc2)ccc1OCCCn1ccnn1 (stereo not drawn) [Compound 1144]	0.04 to 0.2
Cc1cnc(NCCOc2ccc(C3c4[nH]c5ccc(Cl)cc5c4CCN3C(=O)Oc3ccc(F)cc3)cc2)s1 (stereo not drawn) [#838]	< 0.008
CC(C)c1ccc(C2c3[nH]c4ccc(Br)cc4c3CCN2C(=O)Oc2ccc(Cl)cc2)cc1 (stereo not drawn) [Compound 354]	< 0.008
CC1(C)OC[C@H](COc2ccc([C@H]3c4[nH]c5ccc(Cl)cc5c4CCN3C(=O)Oc3ccc(Cl)cc3)cc2)O1 [Compound 1227]	< 0.008
COCC(=O)NCC(O)COc1ccc(C2c3[nH]c4ccc(Cl)cc4c3CCN2C(=O)Oc2ccc(Cl)cc2)cc1 (stereo not drawn) [Compound 1225]	0.008 to 0.04
COCCOc1ccc(C2c3[nH]c4ccc(Cl)cc4c3CCN2C(=O)Oc2ccccc2)cc1 (stereo not drawn) [Compound 436]	< 0.008
O=C(Oc1ccc(F)cc1)N1CCc2c([nH]c3ccc(Cl)cc23)C1c1ccc(OCCCCn2cncn2)cc1 (stereo not drawn) [Compound 743]	< 0.008
CCOC(=O)Nc1ccc(C2c3[nH]c4ccc(Cl)cc4c3CCN2C(=O)Oc2ccc(Cl)cc2)cc1 (stereo not drawn) [Compound 467]	0.008 to 0.04
COc1ccc(C2c3[nH]c4ccc(Cl)cc4c3CCN2C(=O)Oc2ccc(F)cc2)cc1F (stereo not drawn) [Compound 1195]	0.008 to 0.04
COC(=O)NCC(O)COc1ccc(C2c3[nH]c4ccc(Cl)cc4c3CCN2C(=O)Oc2ccc(Cl)cc2)cc1 (stereo not drawn) [Compound 848]	< 0.008
O=C(Oc1ccc(Cl)cc1)N1CCc2c([nH]c3ccc(Cl)cc23)[C@@H]1c1ccc(OCCCn2nccn2)cc1 [Compound 1129]	< 0.008
O=C(Oc1ccccc1)N1CCc2c([nH]c3ccc(Cl)cc23)C1c1ccc(OCC[C@H](O)CO)cc1 (stereo partly drawn) [Compound 1178]	< 0.008
O=C(Oc1ccc(F)cc1)N1CCc2c([nH]c3ccc(Cl)cc23)C1c1cccc(OCCCn2ccnn2)c1 (stereo not drawn) [Compound 1125]	0.2 to 1
COCCOCCOc1ccc(C2c3[nH]c4ccc(Cl)cc4c3CCN2C(=O)Oc2ccc(C)cc2)cc1 (stereo not drawn) [Compound 677]	0.008 to 0.04
COc1ccc(OC(=O)N2CCc3c([nH]c4ccc(Cl)cc34)C2c2ccc(OCC(=O)N3CCOCC3)cc2)cc1 (stereo not drawn) [Compound 1027]	0.04 to 0.2
C=CCOc1ccc(C2c3[nH]c4ccc(Cl)cc4c3CCN2C(=O)Oc2ccc(Cl)cc2)cc1 (stereo not drawn) [Compound 999]	< 0.008

Structure (SMILES)	EC50 [µM]
O=C(Oc1ccc(F)cc1)N1CCc2c([nH]c3ccc(Cl)cc23)C1c1ccc(F)cc1 (stereo not drawn) [Compound 452]	0.008 to 0.04
COc1ccc(C2c3[nH]c4ccc(Cl)cc4c3CCN2C(=O)Oc2ccccc2Cl)cc1 (stereo not drawn) [Compound 587]	0.04 to 0.2
O=C(Oc1ccc(Cl)cc1)N1CCc2c([nH]c3ccc(Cl)cc23)[C@@H]1c1ccc(OCCCCl)cc1 [Compound 1128]	< 0.008
O=C(Oc1ccc(Cl)cc1)N1CCc2c([nH]c3ccc(Cl)cc23)C1c1ccc(OCC(O)Cn2cncn2)cc1 (stereo not drawn) [Compound 996]	< 0.008
O=C(Oc1ccc(F)cc1)N1CCc2c([nH]c3ccc(Cl)cc23)C1c1ccc(OCC(O)Cn2nccn2)cc1 (stereo not drawn) [Compound 1067]	0.008 to 0.04
O=C(Oc1ccc(Cl)cc1)N1CCc2c([nH]c3ccc(Cl)cc23)C1c1ccc(OCC2OCCO2)cc1 (stereo not drawn) [Compound 1053]	< 0.008
COC(=O)c1ccc(C2c3[nH]c4ccc(Br)cc4c3CCN2C(=O)Oc2ccc(Cl)cc2)cc1 (stereo not drawn) [Compound 591]	< 0.008
O=C(Oc1ccc(F)cc1)N1CCc2c([nH]c3ccc(Cl)cc23)C1c1ccc(OCCCO)cc1 (stereo not drawn) [Compound 1110]	< 0.008
CC(C)OC(=O)Nc1ccc(C2c3[nH]c4ccc(Cl)cc4c3CCN2C(=O)Oc2ccc(Cl)cc2)cc1 (stereo not drawn) [Compound 489]	0.04 to 0.2
CC1(C)OC[C@H](CCOc2ccc(C3c4[nH]c5ccc(Cl)cc5c4CCN3C(=O)Oc3ccc(Cl)cc3)cc2)O1 (stereo partly drawn) [Compound 1162]	< 0.008
COc1ccc(C2c3[nH]c4ccc(Cl)cc4c3CCN2C(=O)Oc2ccc(Cl)cc2)cc1OCCn1cncn1 (stereo not drawn) [Compound 1089]	0.2 to 1
O=C(Oc1ccccc1Cl)N1CCc2c([nH]c3ccc(Cl)cc23)C1c1ccc(OCC(O)CO)cc1 (stereo not drawn) [Compound 628]	0.04 to 0.2
COCCOc1ccc(C2c3[nH]c4ccc(Cl)cc4c3CCN2C(=O)Oc2ccc(Cl)cc2)cc1 (stereo not drawn) [Compound 418]	< 0.008
COc1ccc(C2c3[nH]c4ccc(Cl)cc4c3CCN2C(=O)Oc2ccccc2)cc1 (stereo not drawn) [Compound 60]	0.008 to 0.04
COC(=O)c1ccc(C2c3[nH]c4ccc(Cl)cc4c3CCN2C(=O)Oc2ccc(F)cc2)cc1 (stereo not drawn) [Compound 395]	< 0.008
Cc1ccc(OC(=O)N2CCc3c([nH]c4ccc(Cl)cc34)[C@@H]2c2ccc(OCCC(O)Cn3cncn3)cc2)cc1 (stereo partly drawn) [Compound 1291]	0.008 to 0.04

Same assay, conditions: Homo sapiens; HeLa cells, hypoxic conditions (1% O2), VEGF ELISA of conditioned media; read-out: ELISA EC50

Structure (SMILES)	EC50 [µM]
O=C(Oc1ccc(Cl)cc1)N1CCc2c([nH]c3ccc(Br)cc23)C1c1ccc(OCC(O)CO)cc1 (stereo not drawn) [Compound 1344]	< 0.008
CCSCCCOc1ccc(C2c3[nH]c4ccc(Cl)cc4c3CCN2C(=O)Oc2ccc(Cl)cc2)cc1 (stereo not drawn) [Compound 1552]	< 0.008
O=C(Oc1ccc(F)cc1)N1CCc2c([nH]c3ccc(Br)cc23)C1c1ccc(OCC(O)CO)cc1 (stereo not drawn) [Compound 1343]	< 0.008
O=C(Oc1ccc(F)cc1)N1CCc2c([nH]c3ccc(Cl)cc23)C1c1ccc(OCCNc2ncncn2)cc1 (stereo not drawn) [Compound 1440]	< 0.008
CCCOC(=O)NCC(O)COc1ccc(C2c3[nH]c4ccc(Cl)cc4c3CCN2C(=O)Oc2ccc(Cl)cc2)cc1 (stereo not drawn) [Compound 1563]	0.008 to 0.04
CC(CO)(CO)COc1ccc([C@H]2c3[nH]c4ccc(Cl)cc4c3CCN2C(=O)Oc2ccccc2)cc1 [Compound 1336]	0.008 to 0.04
CCOC(=O)NC[C@H](O)COc1ccc([C@H]2c3[nH]c4ccc(Cl)cc4c3CCN2C(=O)Oc2ccc(F)cc2)cc1 [Compound 1663]	< 0.008
C[Si](C)(C)CCS(=O)(=O)N1CCC(Oc2ccc(C3c4[nH]c5ccc(Cl)cc5c4CCN3C(=O)Oc3ccc(F)cc3)cc2)CC1 (stereo not drawn) [Compound 1580]	< 0.008
C#CCOc1ccc([C@H]2c3[nH]c4ccc(Cl)cc4c3CCN2C(=O)Oc2ccc(Cl)cc2)cc1 [Compound 1612]	< 0.008
CCC(CO)(CO)COc1ccc([C@H]2c3[nH]c4ccc(Cl)cc4c3CCN2C(=O)Oc2ccc(Cl)cc2)cc1 [Compound 1329]	< 0.008
